“Also recorded” adds a separate entry of the source.
Columns and labels:
Format in all cases: cell-based, human
H1 cell line = experiment: C-Peptide+/NKX6-1+ beta-like cells by flow cytometry at day 23; details: treatment day 8 to day 13: WIKI4 9 uM, G007-LK 5 uM, JW74 10 uM, JW55 5 uM
From the text: Flow cytometry analysis for C-Peptide (a surrogate for insulin) and NKX6.1 performed at day 23 of differentiation, showing high percentage of C-peptide+/NKX6-1+ cells (beta-like cells). Numbers in each quadrant indicate the relevant percentage of the total population. Results shown are from H1 cell line.
FIG. 7 show specific tankyrase inhibitors generate high percentages of beta-like cells as measured by C-peptide/NKX6-1 double positive cells using H1 cell line. […] Results shown are from H1 cell line. Error bars represent SEM. n=4 for all, n=1 for JW74.

INS^GFP/W reporter line [1] = experiment: Insulin transcript by QPCR normalized to TBP; details: day 23; WIKI4 9 uM compared to IWR-1 3 uM, MN64 3 uM, XAV939 1.5 uM
Procedure: Cells treated with different tankyrase inhibitors express different amounts of insulin transcript, as measured by QPCR. Shown is the relative expression of insulin transcript normalized to the housekeeping gene TBP (TATA Binding Protein) at day 23 of differentiation, where pancreatic progenitor cells were generated by treating cells with or without XAV939, IWR-1, MN64, WIKI4 (XAV939 1.5 uM, IWR-1 3 uM, MN64 3 uM, WIKI4 9 uM). Adult pancreas is used as positive control. Results shown are from INS^GFP/W reporter line. Error bars represent standard deviation. n=3.

INS^GFP/W reporter line [2] = experiment: INSULIN:GFP+ cells by fluorescence imaging and flow cytometric analysis after further differentiation; details: NE + IWR-1-endo 3 uM or WIKI4 9 uM day 8 to day 13; read day 21/23; compared with XAV939 1.5 uM and MN64 3 uM
Procedure: Cells treated with various tankyrase pathway inhibitors (Cell treated with NE alone or NE in combination with tankyras inhibitors (NE+XAV939 1.5 uM, NE+IWR-1-endo 3 uM, NE+MN64 3 uM, NE+WIKI4 9 uM)) between day 8 and day 13 of differentiation were differentiated for an additional 10 days using a modified version of the differentiation protocol developed by Rezania and Pagliuca (Rezania et al 2014, Pagliuca 2014). Representative bright field and fluorescent images of cellular aggregates are shown at day 23 of differentiation. Results shown are from INS^GFP/W reporter line.
Quantification of the percentage of INSULIN:GFP+ cells measured by flow cytometric analysis at day 23 of differentiation, arising from cells treated or untreated with different compounds: XAV939, IWR-1, MN64, WIKI4. Cells were treated using NE (−) or NE in combination with different compounds: XAV939 1.5 uM, IWR-1 3 uM, MN64 3 uM, WIKI4 9 uM. Results shown are from INS^GFP/W reporter line, Error bars represent standard deviation. n=4.
In this report we present a new method to generate PDX1+/NKX6.1+ endoderm from a variety of hPSC lines. […] (See FIGS. 1-5).

Row | SMILES | percentage of C-Peptide+/NKX6-1+ beta-like cells (H1 cell line) | relative expression of insulin transcript (INS mRNA) normalized to TBP (INS^GFP/W reporter line [1]) | percentage of INSULIN:GFP+ cells (INS^GFP/W reporter line [2])
1 | COc1ccc(-n2c(SCc3nc(-c4ccc(C)cc4)no3)nnc2-c2ccncc2)cc1 [JW74] | able to generate a population of C-peptide+/NKX6.1+ insulin-expressing beta-like cells | – | –
2 | CS(=O)(=O)c1ccc(-c2nnc(/C=C/c3nnc(-c4ccc(C#N)cc4)o3)n2-c2ccccc2Cl)nc1 [G007-LK] | able to generate a population of C-peptide+/NKX6.1+ insulin-expressing beta-like cells | – | –
3 | COc1ccc(-n2c(SCCCN3C(=O)c4cccc5cccc(c45)C3=O)nnc2-c2ccncc2)cc1 [WIKI4] | high percentages of C-Peptide+/NKX6-1+ insulin expressing beta-like cells; also recorded: able to generate a population of C-peptide+/NKX6.1+ insulin-expressing beta-like cells | higher levels of INS mRNA | higher percentages of INSGFP+ cells; also recorded: higher percentages of Insulin:GFP+ cells
4 | COc1ccc(C2(CNC(=O)c3ccc(NC(=O)c4ccco4)cc3)CCOCC2)cc1 [JW55] | able to generate a population of C-peptide+/NKX6.1+ insulin-expressing beta-like cells | – | –
5 | O=C(Nc1cccc2cccnc12)c1ccc(N2C(=O)[C@@H]3[C@H](C2=O)[C@@H]2C=C[C@H]3C2)cc1 [IWR-1] | – | – | higher percentages of INSGFP+ cells; also recorded: higher percentages of Insulin:GFP+ cells
